Results as given in US6969711B2, “Cyclic diamine compounds and medicine containing the same” (Kowa Company, Ltd., priority 1997, dated 2005).

melting point | SMILES
86 to 88 °C | CC(=O)c1cccc2nc(SCCCN3CCCN(CC(=O)Nc4c(C(C)C)cccc4C(C)C)CC3)oc12 [Example 94, 2-[4-[3-(7-acetylbenzoxazol-2-ylthio)propyl]homopiperazin-1-yl]-N-(2,6-diisopropylphenyl)acetamide]
96 to 98 °C | CC(C)c1ccc(O)c(C(C)C)c1NC(=O)CN1CCN(CCSc2nc3ccccc3o2)CC1 [Example 61, 2-[4-[2-(benzoxazol-2-ylthio)ethyl]piperazin-1-yl]-N-(2,6-diisopropyl-3-hydroxyphenyl)acetamide]
139 to 141 °C | CC(C)c1cc([N+](=O)[O-])c(O)c(C(C)C)c1NC(=O)CN1CCN(CCSc2nc3ccccc3o2)CC1 [Example 66, 2-[4-[2-(benzoxazol-2-ylthio)ethyl]piperazin-1-yl]-N-(2,6-diisopropyl-3-hydroxy-4-nitrophenyl)acetamide]
138 to 140 °C | CC(C)c1cccc(C(C)C)c1NC(=O)CN1CCN(CCSc2nc3cccc(C(C)(C)C)c3o2)CC1 [Example 95, 2-[4-[2-(7-tert-butylbenzoxazol-2-ylthio)ethyl]piperazin-1-yl]-N-(2,6-diisopropylphenyl)acetamide]
218 to 222 °C | COc1ccc(C(C)C)c(NC(=O)CN2CCN(CCSc3nc4ccccc4o3)CC2)c1C(C)C.Cl.Cl
126 to 127 °C | CSc1ccc(C(C)C)c(NC(=O)CN2CCN(CCCSc3nc4ccccc4o3)CC2)c1C(C)C [Example 68, 2-[4-[3-(benzoxazol-2-ylthio)propyl]piperazin-1-yl]-N-[2,6-diisopropyl-3-(methylthio)phenyl]acetamide]
138 to 139 °C | CC(C)c1cccc(C(C)C)c1NC(=O)CN1CCN(CCSc2nc3cccc(CO)c3o2)CC1 [Example 102, 2-[4-[2-(7-hydroxymethylbenzoxazol-2-ylthio]ethyl]piperazin-1-yl]-N-(2,6-diisopropylphenyl)acetamide]
159 to 164 °C | Cc1cc(SC(C)C)c(NC(=O)CN2CCN(CCSc3nc4ccccc4o3)CC2)c(SC(C)C)n1.Cl.Cl
108 to 109 °C | CCOP(=O)(OCC)Oc1cc(C(C)C)c(NC(=O)CN2CCN(CCSc3nc4ccccc4o3)CC2)c(C(C)C)c1
73 to 75 °C | CC(C)c1cccc(C(C)C)c1NC(=O)CN1CCCN(CCCSc2nc3ncccc3o2)CC1 [Example 15, 2-[4-[3-(oxazolo[4,5-b]pyridin-2-ylthio)propyl]homopiperazin-1-yl]-N-(2,6-diisopropylphenyl)acetamide]
77 to 79 °C | CC(C)c1cccc(C(C)C)c1NC(=O)CN1CCCN(CCCSc2nc3cccc(C(F)(F)F)c3o2)CC1 [Example 91, 2-[4-[3-(7-trifluoromethylbenzoxazol-2-ylthio)propyl]homopiperazin-1-yl]-N-(2,6-diisopropylphenyl)acetamide]
152 to 153 °C | CC(C)c1cccc(C(C)C)c1NC(=O)NCCN1CCN(CCSc2nc3ccccc3o2)CC1 [Example 79, N-[2-[4-[2-(benzoxazol-2-ylthio)-ethyl]piperazin-1-yl]ethyl]-N′-(2,6-diisopropylphenyl)urea]
148 to 150 °C | CSc1ccc(C(C)C)c(NC(=O)CN2CCN(CCSc3nc4ccccc4o3)CC2)c1C(C)C [Example 60, 2-[4-[2-(benzoxazol-2-ylthio)ethyl]piperazin-1-yl]-N-[2,6-diisopropyl-3-(methylthio)phenyl]acetamide]
201 to 203 °C | CC(C)c1cc(O)cc(C(C)C)c1NC(=O)CN1CCN(CCCSc2nc3ccccc3o2)CC1 [Example 118, 2-[4-[3-(benzoxazol-2-ylthio)propyl]piperazin-1-yl]-N-(2,6-diisopropyl-4-hydroxyphenyl)acetamide]

The next lines start with the compound.

SMILES | melting point
CCSc1cc(C)nc(SCC)c1NC(=O)CN1CCN(CCSc2nc3ncccc3o2)CC1.O=C(O)/C=C\C(=O)O.O=C(O)/C=C\C(=O)O | 148 to 149 °C
CCSC1=C(NC(=O)CN2CCN(CCSc3nc4c(C)c(Cl)cc(C(C)C)c4o3)CC2)C=CC(C)(SCC)N1 (stereo not shown) [Example 109, 2-[4-[2-(5-chloro-7-isopropyl-4-methylbenzoxazol-2-ylthio)ethyl]piperazin-1-yl]-N-[2,6-bis(ethylthio)-6-methyl-3-pyridyl]acetamide] | 120 to 122 °C
CSc1ncnc(SC)c1NC(=O)CN1CCN(CCSc2nc3ccccc3o2)CC1 [Example 46, 2-[4-[2-(benzoxazol-2-ylthio)ethyl]piperazin-1-yl]-N-[4,6-bis(methylthio)-5-pyrimidyl)acetamide] | 171 to 172 °C
Cc1cc(SC(C)C)c(NC(=O)CN2CCN(CCSc3nc4ncccc4o3)CC2)c(SC(C)C)n1.Cl.Cl | 170 to 172 °C
COC(=O)c1cccc2nc(SCCN3CCN(CCNC(=O)Nc4c(C(C)C)cccc4C(C)C)CC3)oc12 [Example 82, N-[2-[4-[2-(7-methoxycarbonylbenzoxazol-2-ylthio)ethyl]piperazin-1-yl]ethyl]-N′-(2,6-diisopropylphenyl)urea] | 186 to 188 °C
CC(C)c1cccc(C(C)C)c1NC(=O)CN1CCN(CCSc2nc3ccccc3s2)CC1 [Example 2, 2-[4-[2-(benzothiazol-2-ylthio)ethyl]-piperazin-1-yl]-N-(2,6-diisopropylphenyl)acetamide] | 170 to 171 °C
CC(C)c1cc(O)cc(C(C)C)c1NC(=O)CN1CCN(CCSc2nc3ccccc3[nH]2)CC1 [Example 156, 2-[4-[2-(benzimidazol-2-ylthio)ethyl]piperazin-1-yl]-N-(2,6-diisopropyl-4-hydroxyphenyl)acetamide] | 241 to 242 °C
CCCCCCCN(CCN1CCN(CCSc2nc3c(C)c(Cl)cc(C(C)C)c3o2)CC1)C(=O)Nc1c(C(C)C)cc(O)cc1C(C)C [Example 116, N-[2-[4-[2-(5-chloro-7-isopropyl-4-methylbenzoxazol-2-ylthio)ethyl]piperazin-1-yl]ethyl]-N′-(2,6-diisopropyl-4-hydroxyphenyl)-N-heptylurea] | 138 to 140 °C
Cc1cc(SC(C)C)c(NC(=O)CN2CCN(CCSc3nc4ccccc4s3)CC2)c(SC(C)C)n1.Cl.Cl | 139 to 142 °C
CCSc1cc(C)nc(SCC)c1NC(=O)CN1CCN(CCSc2nc3cccc(C(F)(F)F)c3o2)CC1 [Example 89, 2-[4-[2-(7-trifluoromethylbenzoxazol-2-ylthio)ethyl]piperazin-1-yl]-N-[2,4-bis(ethylthio)-6-methyl-3-pyridyl]acetamide] | 107 to 108 °C
CC(C)c1cccc(C(C)C)c1NC(=O)CN1CCN(CCOc2nc3ccccc3[nH]2)CC1 [Example 154, 2-[4-[2-(benzimidazol-2-yloxy)ethyl]piperazin-1-yl]-N-(2,6-diisopropylphenyl)acetamide] | 205 to 206 °C
CCCCCCCN(CCN1CCN(CCSc2nc3ccccc3o2)CC1)C(=O)Nc1c(C(C)C)cccc1C(C)C [Example 16, N-[2-[4-[2-(benzoxazol-2-ylthio)ethyl]piperazin-1-yl]ethyl]-N′-(2,6-diisopropylphenyl)-N-heptylurea] | 110 to 111 °C
Cc1cc(SC(C)C)c(NC(=O)CN2CCN(CCSc3nc4ccccc4[nH]3)CC2)c(SC(C)C)n1 [Example 37, 2-[4-[2-(benzimidazol-2-ylthio)ethyl]piperazin-1-yl]-N-(2,4-bis(isopropylthio)-6-methyl-3-pyridyl)acetamide] | 186 to 188 °C
CC(C)c1cccc(C(C)C)c1NC(=O)CN1CCN(CCSc2nc3ccccc3[nH]2)CC1 [Example 3, 2-[4-[2-(benzimidazol-2-ylthio)ethyl]-piperazin-1-yl]-N-(2,6-diisopropylphenyl)acetamide] | 207 °C (dec.)
COc1cc(C(C)C)c(NC(=O)CN2CCN(CCSc3nc4cccc(C(C)=O)c4o3)CC2)c(C(C)C)c1 [Example 93, 2-[4-[2-(7-acetylbenzoxazol-2-ylthio)ethyl]piperazin-1-yl]-N-(2,6-diisopropyl-4-methoxyphenyl)acetamide] | 185 to 186 °C
CC(C)c1cccc(C(C)C)c1NC(=O)NCCN1CCN(CCSc2nc3ccccc3[nH]2)CC1 [Example 80, N-[2-[4-[2-(benzimidazol-2-ylthio)ethyl]piperazin-1-yl]ethyl]-N′-(2,6-diisopropylphenyl)urea] | 120 to 122 °C
CC(C)c1cc(C(C)C)c(NC(=O)CN2CCN(CCSc3nc4ccccc4[nH]3)CC2)c(C(C)C)c1 [Example 49, 2-[4-[2-(benzimidazol-2-ylthio)ethyl]piperazin-1-yl]-N-(2,4,6-triisopropylphenyl)acetamide] | 217 to 218 °C
COC(=O)c1cccc2nc(SCCN3CCN(CC(=O)Nc4c(SC(C)C)cc(C)nc4SC(C)C)CC3)oc12 [Example 39, N-[2,4-bis(isopropylthio)-6-methyl-3-pyridyl]-2-[4-[2-(7-methoxycarbonylbenzoxazol-2-ylthio)ethyl]piperazin-1-yl]acetamide] | 60 to 63 °C
CCSc1cc(C)nc(SCC)c1NC(=O)CN1CCN(CCSc2nc3ccccc3o2)CC1 [Example 34, 2-[4-[2-(benzoxazol-2-ylthio)ethyl]piperazin-1-yl]-N-[2,4-bis(ethylthio)-6-methyl-3-pyridyl]acetamide] | 108 to 109 °C
CC(C)c1cc(C(C)C)c(NC(=O)CN2CCN(CCCSc3nc4ccccc4s3)CC2)c(C(C)C)c1 [Example 55, 2-[4-[3-(benzothiazol-2-ylthio)propyl]piperazin-1-yl]-N-(2,4,6-triisopropylphenyl)acetamide] | 107 to 108 °C
CCCCCCCN(CCN1CCN(CCSc2nc3ncccc3o2)CC1)C(=O)Nc1c(C(C)C)cc(O)cc1C(C)C [Example 139, N′-(2,6-diisopropyl-4-hydroxyphenyl)-N-heptyl-N-[2-[4-[2-(oxazolo[4,5-b]pyridin-2-ylthio)ethyl]piperazin-1-yl]ethyl]urea] | 100 to 102 °C
CC(C)c1ccc(NS(C)(=O)=O)c(C(C)C)c1NC(=O)CN1CCN(CCSc2nc3cccc(C(F)(F)F)c3o2)CC1.O=C(O)/C=C\C(=O)O.O=C(O)/C=C\C(=O)O | 172 to 174 °C
COc1cc(C)nc(OC)c1NC(=O)CN1CCN(CCSc2nc3ccccc3o2)CC1 [Example 45, 2-[4-[2-(benzoxazol-2-ylthio)ethyl]piperazin-1-yl]-N-[2,4-dimethoxy-6-methyl-3-pyridyl)acetamide] | 113 to 115 °C
